Test results as given in patent US9096586B2, “Therapeutic compounds” (Gilead Sciences, Inc., priority 2012, dated 2015).

Test system: HIV-IIIb
Test: Test A: Antiviral Assays in MT4 Cells
Assay type: cell-based
Conditions: Human immunodeficiency virus 1, IIIB, MT4, 120 h, MT-4 cells infected with HIV-IIIb (0.004 m.o.i.), 5 days incubation, CellTiter-Glo readout
Experimental: Test A: Antiviral Assays in MT4 Cells
For the antiviral assay utilizing MT-4 cells, 0.4 μL of […] test concentration of 3-fold serially diluted compound in DMSO was added to 40 μL of cell growth medium (RPMI 1640, 10% FBS, 1% penicilline/Streptomycine, 1% L-Glutamine, 1% HEPES) in each well of 384-well assay plates (10 concentrations) in quadruplicate.
1 mL aliquots of 2×10e6 MT-4 cells are pre-infected for 1 and 3 hrs respectively, @ 37° C. with 25 uL (MT4) or of either cell growth medium (mock-infected) or a fresh 1:250 dilution of an HIV-IIIb concentrated ABI stock (0.004 m.o.i. for MT4 cells). Infected and uninfected cells are diluted in cell growth medium and 35 uL of 2000 (for MT4) cells is added to each well of the assay plates.
Assay plates were then incubated in a 37° C. incubator. After 5 days of incubation, 25 μl of 2× concentrated CellTiter-Glo™ Reagent (catalog #G7573, Promega Biosciences, Inc., Madison, Wis.) was added to each well of the assay plate. Cell lysis was carried out by incubating at room temperature for 2-3 min and then chemiluminescence was read using the Envision reader (PerkinElmer).
Accordingly, the compounds disclosed herein (e.g. compound of the invention) may be useful for treating the proliferation of the HIV virus, treating AIDS or delaying the onset of AIDS or ARC symptoms.

SMILES | EC50 [nM]
Cc1cc2nc(-c3ccnc(-c4cnn(Cc5ccccc5)c4)c3)sc2c(-c2ccc(Cl)cc2)c1[C@H](OC(C)(C)C)C(=O)O [Compound 150] | 91
Cc1cc2nc(-c3cnc4[nH]cc(C)c4c3)sc2c(-c2ccc(Cl)cc2)c1[C@](C)(OC(C)(C)C)C(=O)O [Compound 112, (S)-methyl 2-tert-butoxy-2-(7-(4-chlorophenyl)-5-methyl-2-(3-methyl-1H-pyrrolo[2,3-b]pyridin-5-yl)benzo[d]thiazol-6-yl)acetic acid] | 28
Cc1cc2nc(N3CCC(Oc4ccccc4)C3)sc2c(-c2ccc(Cl)cc2)c1[C@H](OC(C)(C)C)C(=O)O (stereo partly drawn) [Compound 126, (2S)-2-tert-butoxy-2-(7-(4-chlorophenyl)-5-methyl-2-(3-phenoxypyrrolidin-1-yl)benzo[d]thiazol-6-yl)acetic acid] | 722
